Measurements reported in patent US20250135042A1, “Perfluorocarbon-Containing Contrast Agent for Use in MRI Imaging of Body Cavities” (University of Pittsburgh - Of the Commonwealth System of …, priority 2023, published 2025).

Legend:
Stokes-Einstein radius = format: physicochemical
[1] = 1H relaxivity of serial two-fold dilutions in tubes, from T1 weighted images; format: physicochemical; conditions: 7 Tesla, 37° C.
Method: FIGS. 2A and 2B: Graphical plots and T1 weighted images of individual tubes containing serial two-fold dilutions of Gadobutrol without ≥10% w/v PFC emulsion (FIG. 2A) or with ≥10% w/v PFC emulsion (FIG. 2B) display that ≥10% PFC emulsion diminishes the ^1H relaxivity of Gadobutrol from 3.95 L/mmol/s (FIG. 2A) to 2.05 L/mmol/s (FIG. 2B) at 7 Tesla scanner. T1 relaxation rate of water protons (R1=1/T1) was calculated from the slope of the line plotted by computing T1 relaxation time from T1 weighted images acquired at identical magnetic field strength of 7 Tesla at 37° C.
While gadolinium chelates are characterized by longitudinal and transverse relaxivity, denoted r1 and r2, respectively, (sensitivity to improve image contrast) gadolinium chelates are generally referred to as T1 agents owing to their larger effect on tissue T1 than on T2 for positive image contrast in T1-weighted images.

Stokes-Einstein radius (median for the emulsion particles) (Stokes-Einstein radius): 0.4 nm
1H relaxivity of Gadobutrol ([1]; with ≥10% w/v PFC emulsion): 2.05 L/mmol/s
1H relaxivity of Gadobutrol ([1]; without ≥10% w/v PFC emulsion): 3.95 L/mmol/s
SMILES: O=C([O-])CN1CCN(CC(=O)[O-])CCN([C@H](CO)[C@H](O)CO)CCN(CC(=O)[O-])CC1.[Gd+3] (racemic) [Gadobutrol, gadobutrol]
